Test: Human HepG2 cell viability assay in 384 well format
Assay type: toxicity, cell-based
Design: dose 125 nL, time 70.5 hour; cytotoxicity at 70.5 h: concentration not given beside the values
Conditions: HepG2 cells, read-out: Inhibition

Row | Compound | cytotoxicity at 70.5 h [%]
1 | Cc1cc(CN2CCN(C(=O)C3(C#N)CCCC3)CC2)on1 | 21
2 | O=C(Cc1ccsc1)N1CCC(c2ccncc2)CC1 | -13.6
3 | CN1CC(c2ccccc2)CC2(CCN(C(=O)c3ccccc3)CC2)C1 (stereo not drawn) | -5.15
4 | COc1cc2cc3c(nc2cc1OC)OCCN(CC1CC1)C3 | -2.88
5 | CCCc1cnc(C)nc1N1CCC2(CC1)CNC(=O)O2 | 10.5
6 | Cc1cc(-c2ccc(=O)n(CCNC(=O)C3CCC3)n2)c(C)o1 | 15.6
7 | CNS(=O)(=O)c1cccc(CNC(=O)c2cc(C)no2)c1 | 15.5
8 | CC(=O)NCC1CCC2(CCN(c3nccc(C4CCCC4)n3)CC2)O1 (stereo not drawn) | -7.84
9 | CCOC(=O)c1coc(N2CCC(C(O)CC(C)C)CC2)n1 (stereo not drawn) | -1.6
10 | Fc1ccc(CN2CCC3(CCN(Cc4nccs4)CC3)C2)cc1 | -0.695
11 | CC1CCCN1C1CCN(C(=O)c2cccc(F)c2)CC1 (stereo not drawn) | 6.94
12 | COc1ccc(OC2CCN(C(=O)[C@@H](N)Cc3c[nH]cn3)CC2)cc1 | 1.71
13 | CC(=O)N1CCC(N2CC(Cc3nccc4ccn(C)c34)C2)CC1 | -6.03
14 | O=c1cc(Cn2ccnc2)nc2n1CCCN(CC1CCOCC1)C2 | -19.5
15 | CN(C)C(=O)CN1C[C@H]2CCN(C(=O)c3ccncc3)CC[C@H]2S1(=O)=O | -3.99
16 | CO[C@@H]1CCN(S(=O)(=O)c2cccnc2)[C@@H]2CN(CC3CC3)C[C@@H]21 | -8.38
17 | COC(=O)c1ccc(C2CC(=O)Oc3cc(C)[nH]c(=O)c32)cc1 (stereo not drawn) | 4.58
18 | O=C(CCc1ccsc1)N1CCC(Nc2cccnn2)CC1 | -3.07
19 | CS(=O)(=O)c1snnc1C1CCN(Cc2ccncc2)CC1 | -7.11
20 | CCc1nccn1CCC(=O)N1CCN(c2ccccc2C)CC1C (stereo not drawn) | -10.2
21 | CN(C)S(=O)(=O)N(Cc1cscn1)c1ccccc1 | 12.4
22 | CC(=O)N(Cc1noc(C)n1)C1CCN(Cc2ccccc2C#N)C1 (stereo not drawn) | -5.45
23 | Cc1ccc(O)c(C(=O)N2CCC(CN3CCCCCC3)CC2)c1 | -6.42

Row | Compound | cytotoxicity at 70.5 h [%]
24 | Cn1ccc(C(=O)N2CCCC(Cc3cnc4ccccc4c3)C2)n1 (stereo not drawn) | -1.48
25 | Cc1cc(C(F)(F)F)nn1C(C)C(=O)NN1CCN(C)CC1 (stereo not drawn) | 18.4
26 | O=C(N[C@H]1CN[C@H]2CCCO[C@H]21)c1ccno1 | -4.14
27 | c1ccc(CN2CCC(NCCSc3ncn[nH]3)C2)cc1 (stereo not drawn) | 30.4
28 | CCn1cnnc1CNC(=O)N1CCC(O)CC1 | -5.8
29 | Cc1nc(C2CCCN(C(=O)COCc3ccccc3)C2)no1 (stereo not drawn) | -12.6
30 | COc1ncccc1CN1C[C@@H]2OCCN(CCN(C)C)[C@@H]2C1 | -3.67
31 | COCCCNC(=O)CN(C)C(=O)c1cc2cc(C)ccc2nc1C | 3.78
32 | CCN1CCN(C2CCN(Cc3noc(C)n3)CC2)C1=O | 28.4
33 | COc1cc(CNC(C)Cn2cccn2)cc2c1OCCO2 (stereo not drawn) | -4.44
34 | c1cncc(CN2CCCn3nnc(COCC4CC4)c3C2)c1 | -9.26
35 | Cc1nn(C)c(N2CCCN(C)CC2)c1CNC(=O)CCC(C)C | -1.98
36 | COCCCNC(=O)Nc1ccc(-n2cncn2)c(C(F)(F)F)c1 | -5.91
37 | CN1CCNC(=O)C12CCN(C(=O)c1ccc3[nH]c(=O)[nH]c3c1)CC2 | -7.66
38 | COCc1cnc2n1CCN(C1CCC1)C2C (stereo not drawn) | -2.01
39 | CC(C)C(=O)NC1CCCN(C(=O)c2cc(Cl)ccc2O)C1 (stereo not drawn) | 15.5
40 | CCn1ncc2c1CN(C(=O)c1cscn1)CC2COC (stereo not drawn) | -7.98
41 | O=C1C(NCc2nnc3n2CCCC3)CCCN1c1cccc(F)c1 (stereo not drawn) | -3.38
42 | CCOCC(=O)N(Cc1ccccn1)Cc1ccccc1C | -4.52
43 | CCc1noc(C(C)N2CCC(C)CC2)n1 (stereo not drawn) | -3.85
44 | COc1c(NS(=O)(=O)c2cc(C)ccc2C)c(C)nn1C | -63.5
45 | CC(NC(=O)NC1CCN(Cc2ccccn2)CC1)c1ccco1 (stereo not drawn) | -1.3
46 | Cc1noc(C)c1NC(=O)NC1CCN(C(=O)OC(C)(C)C)CC1 | -9.26

Row | Compound | cytotoxicity at 70.5 h [%]
47 | Cc1nc(C)n(CC2CCCN2Cc2nc(-c3ccccn3)no2)n1 (stereo not drawn) | -7.25
48 | Cc1cnn(Cc2ccc(NC(=O)N3CCCC3)cc2)c1 | -3.9
49 | CC(=O)N1CCCC1c1ccc(Br)cn1 (stereo not drawn) | 1.79
50 | CCc1c(C(=O)NCC2CCS(=O)(=O)C2)cnn1-c1ccccc1 (stereo not drawn) | -4.41
51 | Cc1cnn(CC2CN(Cc3nnc(-c4ccccc4)o3)CCO2)c1 (stereo not drawn) | -8.48
52 | Cc1c(C(C)NC(=O)Nc2ccccc2F)cnn1C (stereo not drawn) | -5.46
53 | O=C(O)c1cnc(N2CCC(O)CC2)nc1COc1cccc(F)c1 | -12.9
54 | COCC(=O)N1CCC2(C1)c1ccccc1S(=O)(=O)N2C (stereo not drawn) | -9.08
55 | Cc1noc(C)c1-c1cc(CCC2CN(C(=O)C(C)C)CCO2)ncn1 (stereo not drawn) | -3.99
56 | Cc1nc(CN2CCCC2c2[nH]ncc2C(=O)N(C)C)cs1 (stereo not drawn) | -2.79
57 | Oc1nc(-c2cnccn2)nc2c1CCN(Cc1ccccn1)C2 | -5.26
58 | CN(Cc1cc(Br)cn1C)C(=O)Cc1cccc(O)c1 | -3.37
59 | CCN(CC)CCNC(=O)c1nn(CC)cc1Cl | 18.6
60 | Fc1ccc(CN2CCO[C@H]3[C@H](OCc4ccncc4)CC[C@@H]32)cc1 | 55.8
61 | CCc1ncc2c(n1)CN(CC(=O)Nc1ccc(Cl)cn1)CC2 | 32.4
62 | CCCN(CC)Cc1ccc(C(=O)NCC2COCCO2)c(=O)[nH]1 (stereo not drawn) | -6.16
63 | CCc1nc(C2CCCN2CC(=O)Nc2sc(C)c(C)c2C)no1 (stereo not drawn) | -5.03
64 | Cc1cnn(CC2CN(CCCc3nc4ccccc4o3)CCO2)c1 (stereo not drawn) | -0.695
65 | CCc1nc(CN(C(C)=O)C2CCN(CCc3ccccn3)C2)no1 (stereo not drawn) | -11.5
66 | CCc1cnc(CN2CCC(N(C)Cc3noc(C)n3)C2)o1 (stereo not drawn) | 17
67 | Cc1nc(C)n(CC2CCCN2Cc2cscn2)n1 (stereo not drawn) | -9.32
68 | CCOCCn1c(=O)[nH]c2cc(C(=O)N(C)Cc3nc(C)c[nH]3)ccc21 | -5.85
69 | CC(C)(C)n1c(NC(=O)CNC(=O)NC2CC2)nc2ccccc21 | 1.24

Row | Compound | cytotoxicity at 70.5 h [%]
70 | Cc1csc(CNC(=O)CCCc2cccs2)n1 | -1.29
71 | Cc1ccc(-c2nc(CNC(C)CCO)[nH]c2-c2ccccn2)cc1 (stereo not drawn) | 1.74
72 | Cn1cc(C2=NOC(C(=O)NC3(c4cccc(F)c4)CCCC3)C2)cn1 (stereo not drawn) | -4.3
73 | CN(C)S(=O)(=O)N1C[C@@H]2CC[C@H](C1)N(Cc1ccc3c(c1)OCCO3)C2 | -3.43
74 | CC(=O)N1CC[C@@]2(O)CCCC[C@H]2[C@@H]1c1ccccc1 | -0.54
75 | CC(c1ccccc1)N1Cc2nc(N(C)C)ncc2C1=O (stereo not drawn) | 49
76 | CN(C)CCN(C)C(=O)c1cn(CC2CCCCC2)nn1 | -18.4
77 | CC(C(=O)N1CCCC1)N1CCCN(C(=O)Oc2ccccc2)CC1 (stereo not drawn) | -10.6
78 | CCN(CC)C(=O)CCNC(=O)Cc1nc(-c2ccco2)oc1C | 4.78
79 | COc1ccccc1CCN[C@@H]1c2ccccc2C2(CCNCC2)[C@H]1O | -4.74
80 | Cc1cnc(C(=O)N[C@H]2CN(CCS(C)(=O)=O)C[C@@H]2C2CC2)cn1 | 12.4
81 | CCC(C)NC(=O)c1cc(S(=O)(=O)N2CCCC2)c(C)s1 (stereo not drawn) | -3.53
82 | Cc1ccc(N(C)[C@@H]2CC[C@@H]3CN(C(=O)CC4CCOCC4)C[C@@H]32)nn1 | -7.61
83 | CCOCC1CN(C(=O)Cc2ccccn2)Cc2cnn(C)c21 (stereo not drawn) | -3.1
84 | Cc1cnn(CC(C)NCc2ccc(OCc3cscn3)cc2)c1 (stereo not drawn) | -6.24
85 | Cc1oc(-c2ccccc2)nc1CN1CCC(c2ccnn2C)CC1 | -78.8
86 | O=C(c1cn(-c2cc(N3CCSCC3)ncn2)cn1)N1CCOCC1 | 23.9
87 | CCCOc1c(Cl)cc(C(=O)N2CCOC23CCN(C)CC3)cc1Cl | 7.29
88 | O=C(C1CCS(=O)(=O)CC1)N1CCC(Cc2ccc(F)cc2)CC1 | 3.44
89 | NC(=O)N1CCCC(C(=O)NCCc2nc(Cc3ccccc3)no2)C1 (stereo not drawn) | -17.9
90 | CCC(NC(=O)c1c(C(=O)O)cnn1C)c1ccc(C)cc1C (stereo not drawn) | -3.68
91 | CCOC(=O)N1CCCC2(CCN(Cc3ccccc3C#N)C2)C1 (stereo not drawn) | -6.46
92 | CC[C@H](C)Nc1nccc(-c2cnc3sc(C)cn3c2=O)n1 | -5.35

Row | Compound | cytotoxicity at 70.5 h [%]
93 | Cc1ccc(N2CCO[C@H]3CN(Cc4ccc(F)cc4)C[C@H]32)nn1 | -7.45
94 | CC(C)(NS(C)(=O)=O)c1nc(-c2ccc(F)cc2Cl)no1 | -6.02
95 | Cc1cccc(OCCC(=O)N2CCCN(C(N)=O)CC2)c1C | 15.3
96 | CN1CCN(C(=O)c2cc(C#N)cn2C)c2ccccc2C1 | -2.54
97 | COCCn1cc(NCc2c[nH]nc2C(C)(C)C)cn1 | -4.3
98 | Cn1ccnc1C1(O)CCN(C(=O)CCc2ccccc2)CC1 | -5.37
99 | COc1cc(C2(C(=O)NCC(=O)NC3CC3)CC2)ccc1C | -5.44
100 | CN(C)S(=O)(=O)N1CCC[C@]2(C[C@@H](Oc3ccccn3)CO2)C1 | -17.2
101 | Cc1cnn(C2CN(Cc3ccc4c(c3)OCCO4)C2)c1 | -10.6
102 | CC(C)CN1Cc2c(C(=O)NC3CC3)ncn2-c2ccccc2S1(=O)=O | -15.8
103 | COc1ccc(CNc2cccnc2-n2cccn2)cc1OC | -14.2
104 | Cc1cc(F)c2c(c1)CCCN2S(=O)(=O)c1ncn(C)c1Cl | -0.387
105 | Cc1nc(CNC2CCc3ncnn3C2)oc1C (stereo not drawn) | -5.86
106 | O=C(Cc1cccc(O)c1)NC1CCN(c2cccc(Cl)c2)C1 (stereo not drawn) | -3.87
107 | CN(Cc1cnn(C)c1)C(=O)NCc1ccc2c(c1)OCCO2 | 0.47
108 | Cc1ccc(C2CSCCN2C(=O)c2ccc(C(N)=O)cc2)o1 (stereo not drawn) | -9.63
109 | COc1cccc(CCCNC(=O)N2CCC(O)(C(F)(F)F)C2)c1 (stereo not drawn) | -2.72
110 | CCOC(=O)NC(CNC(=O)CCc1ccccn1)CC(C)C (stereo not drawn) | -8.82
111 | O=C1COC2(CCN(Cc3cccs3)CC2)CN1c1ccccc1 | -4.47
112 | CCCc1nnc(NCCc2noc(C3CCC3)n2)o1 | -10.7
113 | CCn1ccnc1CN1CCN(CC(O)c2ccco2)CC1 (stereo not drawn) | -5.46

From ChEMBL document CHEMBL3507680, “University of Dundee, Gates Library screen for HepG2 cell viability”
